Values joined by “and” are separate entries in the source; they are usually repeats but may differ in a detail not shown here. Equal values may be shown once. Inconclusive results and toxic doses are left out.

The test system of the assay is BDF1 mice, P388 leukemia ip, median survival T/C. In words: NCI In Vivo Anticancer Drug Screen. Data for tumor model P388 Leukemia (intraperitoneal) in B6D2F1 (BDF1) mice. The note with it: endpoint: median survival time, higher = longer survival. The gist of the method: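 Compound-treated tumour-bearing mice were compared with vehicle-treated controls. Survival was recorded, and the value is the treated-group measurement divided by the control-group measurement (T/C).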

[1] abbreviates: dose: 25.0 mg/kg/injection, schedule: Q01DX009 (ip), vehicle: saline with Tween-80.
Where [2] appears, read: dose: 100.0 mg/kg/injection, schedule: Q04DX003 (ip), vehicle: Klucel (hydroxypropylcellulose) (HPC).
Where [3] appears, read: dose: 400.0 mg/kg/injection, schedule: Q04DX003 (ip), vehicle: Klucel (hydroxypropylcellulose) (HPC).
Setting [4] is: dose: 200.0 mg/kg/injection, schedule: Q04DX003 (ip), vehicle: Klucel (hydroxypropylcellulose) (HPC).
Setting [5] is: dose: 50.0 mg/kg/injection, schedule: Q01DX009 (ip), vehicle: saline with Tween-80.
The mark [6] stands for this setting: dose: 100.0 mg/kg/injection, schedule: Q01DX009 (ip), vehicle: saline with Tween-80.
[7] abbreviates: dose: 200.0 mg/kg/injection, schedule: Q01DX009 (ip), vehicle: saline with Tween-80.
Where [8] appears, read: dose: 100.0 mg/kg/injection, schedule: Q04DX003 (ip), vehicle: saline with Tween-80.
[9] abbreviates: dose: 200.0 mg/kg/injection, schedule: Q04DX003 (ip), vehicle: saline with Tween-80.
Where [10] appears, read: dose: 400.0 mg/kg/injection, schedule: Q04DX003 (ip), vehicle: saline with Tween-80.

For `CCN(CC)C(=S)Oc1cc(C)nc(N2CCCC2)n1`, the T/C reads like this: (dose: 50.0 mg/kg/injection, schedule: Q01DX005 (ip), vehicle: saline with Tween-80) 95 % of control; (dose: 100.0 mg/kg/injection, schedule: Q01DX005 (ip), vehicle: saline with Tween-80) 101 % of control; (dose: 200.0 mg/kg/injection, schedule: Q01DX005 (ip), vehicle: saline with Tween-80) 97 % of control.

As for `CN=C(N)c1ccc(N=C(N)c2ccc(N=C(N)c3ccc(NC(=O)Nc4ccc(NC(=O)Nc5ccc(C(N)=Nc6ccc(C(N)=Nc7ccc(C(N)=NC)cc7)cc6)cc5)cc4)cc3)cc2)cc1`, the T/C was 162 % of control (dose: 3.0 mg/kg/injection, schedule: Q01DX009 (ip), vehicle: saline with Tween-80); 183 % of control (dose: 5.0 mg/kg/injection, schedule: Q01DX009 (ip), vehicle: saline with Tween-80); 230 % of control and 162 % of control (dose: 8.0 mg/kg/injection, schedule: Q01DX009 (ip), vehicle: saline with Tween-80); 150 % of control (dose: 12.0 mg/kg/injection, schedule: Q01DX009 (ip), vehicle: saline with Tween-80); 250 % of control (dose: 12.0 mg/kg/injection, schedule: Q04DX003 (ip), vehicle: saline with Tween-80); 92 % of control (dose: 18.0 mg/kg/injection, schedule: Q01DX009 (ip), vehicle: saline with Tween-80). Besides, the T/C was 213 % of control and 216 % of control (dose: 18.0 mg/kg/injection, schedule: Q04DX003 (ip), vehicle: saline with Tween-80); 109 % of control under setting [1]; 250 % of control and 204 % of control (dose: 25.0 mg/kg/injection, schedule: Q04DX003 (ip), vehicle: saline with Tween-80); 170 % of control (dose: 37.0 mg/kg/injection, schedule: Q04DX003 (ip), vehicle: saline with Tween-80).

With `Cc1ccc(S(=O)(=O)N/N=C/c2ccccc2)cc1`, the T/C runs as follows: (dose: 25.0 mg/kg/injection, schedule: Q04DX003 (ip), vehicle: Klucel (hydroxypropylcellulose) (HPC)) 93 % of control; (dose: 50.0 mg/kg/injection, schedule: Q04DX003 (ip), vehicle: Klucel (hydroxypropylcellulose) (HPC)) 97 % of control; under setting [2], 103 % of control; under setting [3], 106 % of control.

In the case of `O=[N+]([O-])c1ccc(N=Cc2ccccc2)cc1`, the T/C under setting [2] is 100 % of control, the T/C under setting [4] is 108 % of control and the T/C under setting [3] was 108 % of control.

`Nc1nc(-c2c[nH]c(=O)[nH]c2=O)cs1`: the T/C was 103 % of control under setting [5] and 98 % of control under setting [6].

On to `COc1ccc(OC)c(/C=C/C(=O)NCC(O)CO)c1` (stereo not drawn), for which the T/C was 95 % of control under setting [5] and 100 % of control under setting [6].

On to `N#Cc1nc2c(n(O)c1=N)CCCCCCCCCC2`, for which the T/C is, setting by setting: under setting [5], 95 % of control; under setting [6], 92 % of control; under setting [7], 92 % of control.

On to `CC1OC(n2ccc(NC(=O)c3ccc(NC(=O)C(C)(N)CO)cc3)nc2=O)CC(O)C1OC1OC(C)C(N(C)C)C(O)C1O` (stereo not drawn), for which the T/C is 106 % of control (dose: 2.5 mg/kg/injection, schedule: Q01DX009 (ip), vehicle: saline); 103 % of control (dose: 5.0 mg/kg/injection, schedule: Q01DX009 (ip), vehicle: saline); 111 % of control (dose: 10.0 mg/kg/injection, schedule: Q01DX009 (ip), vehicle: saline).

Take `Brc1ccc(-c2csc(Nc3nc(-c4ccc(Br)cc4)cs3)n2)cc1`: the T/C under setting [8] is 90 % of control, the T/C under setting [9] was 90 % of control and the T/C under setting [10] is 95 % of control.

Take `O=C(O)C1CC2c3ccccc3C1c1ccccc12` (stereo not drawn): the T/C is 90 % of control under setting [2], 95 % of control under setting [4] and 109 % of control under setting [3].

For `CC(CCCN(CCCl)CCCl)Nc1ccnc2cc(Cl)ccc12` (stereo not drawn), the T/C was 100 % of control (dose: 0.5 mg/kg/injection, schedule: Q04DX003 (ip), vehicle: saline); 154 % of control (dose: 0.66 mg/kg/injection, schedule: Q01DX009 (ip), vehicle: saline); 154 % of control (dose: 1.0 mg/kg/injection, schedule: Q01DX009 (ip), vehicle: saline); 100 % of control (dose: 1.0 mg/kg/injection, schedule: Q04DX003 (ip), vehicle: saline); 111 % of control (dose: 2.0 mg/kg/injection, schedule: Q04DX003 (ip), vehicle: saline).

Consider `c1ccc(-c2nc3ncccn3n2)cc1`, for which the T/C was 97 % of control under setting [1]; 106 % of control and 111 % of control under setting [5]; 104 % of control and 120 % of control under setting [6]; 104 % of control and 112 % of control under setting [7].

Take `NC(=O)c1nc(-c2ccccc2)c(-c2ccccc2)[nH]c1=O`: the T/C runs as follows: under setting [5], 109 % of control; under setting [6], 117 % of control; under setting [8], 106 % of control; under setting [7], 99 % of control; under setting [9], 102 % of control; under setting [10], 116 % of control.

With `O=C(Nc1ccc(Cl)c(Cl)c1)ON1CCCCC1`, the T/C runs as follows: under setting [5], 100 % of control; under setting [6], 100 % of control; under setting [7], 106 % of control.

As to `CC(C)NC(=O)c1ccccc1-[s+]1c2ccccc2c(=O)n1C(C)C` (stereo not drawn), the T/C under setting [8] is 94 % of control, the T/C under setting [9] was 96 % of control and the T/C under setting [10] is 96 % of control.

On to `[CH3][Sn]([CH3])([CH3])[S]C(=S)N1CCOCC1`, for which the T/C (dose: 0.75 mg/kg/injection, schedule: Q01DX009 (ip), vehicle: Klucel (hydroxypropylcellulose) (HPC)) is 97 % of control.

For the molecule `C/C(=C\Br)CO`, the T/C runs as follows: (dose: 50.0 mg/kg/injection, schedule: Q04DX003 (ip), vehicle: saline) 90 % of control; (dose: 100.0 mg/kg/injection, schedule: Q01DX009 (ip), vehicle: saline) 105 % of control; (dose: 100.0 mg/kg/injection, schedule: Q04DX003 (ip), vehicle: saline) 105 % of control; (dose: 200.0 mg/kg/injection, schedule: Q01DX009 (ip), vehicle: saline) 95 % of control; (dose: 200.0 mg/kg/injection, schedule: Q04DX003 (ip), vehicle: saline) 90 % of control.

As for `O=[N+]([O-])c1ccccc1N/N=C\c1c(Cl)[nH]c2ccccc12`, the T/C is, setting by setting: (dose: 200.0 mg/kg/injection, schedule: Q04DX002 (ip), vehicle: Klucel (hydroxypropylcellulose) (HPC)) 90 % of control; (dose: 400.0 mg/kg/injection, schedule: Q04DX002 (ip), vehicle: Klucel (hydroxypropylcellulose) (HPC)) 90 % of control.

For the molecule `COC(=O)/C=C/CBr`, the T/C is, setting by setting: (dose: 2.5 mg/kg/injection, schedule: Q01DX010 (ip), vehicle: saline) 110 % of control; (dose: 5.0 mg/kg/injection, schedule: Q01DX010 (ip), vehicle: saline) 110 % of control; (dose: 10.0 mg/kg/injection, schedule: Q01DX010 (ip), vehicle: saline) 110 % of control; (dose: 20.0 mg/kg/injection, schedule: Q01DX010 (ip), vehicle: saline) 115 % of control.

Regarding `ClCc1cccc(CCl)c1`, the T/C reads like this: (dose: 50.0 mg/kg/injection, schedule: Q01DX009 (ip), vehicle: saline sonified) 108 % of control; (dose: 100.0 mg/kg/injection, schedule: Q01DX009 (ip), vehicle: saline sonified) 108 % of control; (dose: 200.0 mg/kg/injection, schedule: Q01DX009 (ip), vehicle: saline sonified) 86 % of control.

Regarding `C[n+]1c(/C=N/NC(N)=S)ccc2ccccc21`, the T/C by setting is: under setting [1], 97 % of control; under setting [5], 106 % of control; under setting [6], 113 % of control.

As for `CC1=CC23C(COC(=O)C24CO4)C(C(=O)O)=CC3C1C` (stereo not drawn), the T/C is 105 % of control (dose: 0.31 mg/kg/injection, schedule: Q01DX009 (ip), vehicle: Klucel (hydroxypropylcellulose) (HPC)); 113 % of control (dose: 0.63 mg/kg/injection, schedule: Q01DX009 (ip), vehicle: Klucel (hydroxypropylcellulose) (HPC)); 102 % of control and 117 % of control (dose: 1.25 mg/kg/injection, schedule: Q01DX009 (ip), vehicle: Klucel (hydroxypropylcellulose) (HPC)).

These data come from PubChem BioAssay AID328 (DTP/NCI, 2004).
